System: Engineered strains of E. coli
Type: cell-based
[1] = after solvent exposure, vs positive control

CC(C)=O [acetone]
expression of accBC (fatty acid biosynthesis): downregulated | expression of bssRS (decreasing biofilm material): upregulated | expression of chaperone genes groLS and dnaJK: increased expression | expression of gad genes: increase in expression | expression of gadABCE (acid resistance via GABA production): upregulated | expression of glpABC (glycerol to glycerone phosphate): increased in expression | expression of heat shock proteins and chaperones hslJORUV: upregulation | expression of ibpAB and clpAB (protein protection and repair): increased | expression of marA: upregulated | change in expression of gene adiA [1]: 1.50 ± 0.91 | change in expression of gene adiC [1]: −0.54 ± 1.10 | change in expression of gene adiY [1]: −0.57 ± 0.71 | change in expression of gene bhsA [1]: 4.49 ± 0.62 | change in expression of gene bssR [1]: 2.34 ± .46 | change in expression of gene bssS [1]: 5.02 ± .88 | change in expression of gene clpA [1]: 1.92 ± .68 | change in expression of gene clpB [1]: 4.51 ± .69 | change in expression of gene clpP [1]: 1.39 ± 0.63 | change in expression of gene coaA [1]: −3.10 ± 1.0 | change in expression of gene coaD [1]: 0.05 ± 1.01 | change in expression of gene cspA [1]: −4.58 ± 0.64 | change in expression of gene cspB [1]: −5.17 ± 1.49 | change in expression of gene cspC [1]: −0.95 ± .98 | change in expression of gene cspD [1]: 2.52 ± 0.63 | change in expression of gene cspE [1]: −2.45 ± 0.72 | change in expression of gene cspF [1]: −5.06 ± 1.34 | change in expression of gene dhaK [1]: 0.26 ± 0.67 | change in expression of gene dhaL [1]: −0.41 ± 0.74 | change in expression of gene dnaJ [1]: 2.96 ± 0.74 | change in expression of gene dnaK [1]: 4.58 ± 0.66 | change in expression of gene fabA [1]: −0.85 ± 0.84 | change in expression of gene fabB [1]: 1.61 ± 0.72 | change in expression of gene fabD [1]: −1.74 ± 0.59 | change in expression of gene flgA [1]: −2.14 ± 1.68 | change in expression of gene flgB [1]: −4.07 ± 1.67 | change in expression of gene flgC [1]: −4.24 ± 2.06 | change in expression of gene flgD [1]: −4.39 ± 2 | change in expression of gene flgE [1]: −4.02 ± 1.30 | change in expression of gene flgF [1]: −2.98 ± 1.7 | change in expression of gene flgG [1]: −4.98 ± 1.68 | change in expression of gene flgH [1]: −2.24 ± 1.82 | change in expression of gene gabD [1]: 0.73 ± 1.41 | change in expression of gene gabP [1]: −1.06 ± 1.42 | change in expression of gene gabT [1]: 0.34 ± 1.38 | change in expression of gene gadA [1]: 4.57 ± 0.70 | change in expression of gene gadB [1]: 4.53 ± 0.82 | change in expression of gene gadC [1]: 4.83 ± 0.82 | change in expression of gene gadE [1]: 2.23 ± .62 | change in expression of gene gadW [1]: 1.58 ± 1 | change in expression of gene gadX [1]: 1.71 ± 0.59 | change in expression of gene gadY [1]: 0.05 ± 0.83 | change in expression of gene glpA [1]: 4.83 ± 0.91 | change in expression of gene glpB [1]: 2.81 ± 0.69 | change in expression of gene glpC [1]: 3.12 ± 0.87 | change in expression of gene groL [1]: 4.18 ± 0.58 | change in expression of gene groS [1]: 4.58 ± 0.51 | change in expression of gene hchA [1]: 4.64 ± 0.64 | change in expression of gene hslJ [1]: −0.10 ± 0.75 | change in expression of gene hslO [1]: 2.78 ± 0.69 | change in expression of gene hslR [1]: 3.01 ± 0.70 | change in expression of gene hslU [1]: 2.69 ± 0.59 | change in expression of gene hslV [1]: 2.24 ± 0.67 | change in expression of gene ibpA [1]: 5.64 ± 1.22 | change in expression of gene ibpB [1]: 6.70 ± 1.51 | change in expression of gene lhgO [1]: 1.82 ± 1.73 | change in expression of gene lipA [1]: −1.03 ± 0.69 | change in expression of gene lipB [1]: −1.11 ± 0.75 | change in expression of gene narG [1]: 2.69 ± 0.70 | change in expression of gene narH [1]: 2.94 ± 0.66 | change in expression of gene narI [1]: 1.48 ± 1.02 | change in expression of gene narJ [1]: 1.75 ± 0.74 | change in expression of gene narK [1]: 0.21 ± 0.96 | change in expression of gene potA [1]: −3.62 ± 0.91 | change in expression of gene potB [1]: −2.22 ± 1.43 | change in expression of gene potC [1]: −3.06 ± 1.45 | change in expression of gene pspA [1]: 2.10 ± 0.60 | change in expression of gene pspB [1]: 0.76 ± 0.80 | change in expression of gene rpoA [1]: −0.20 ± 0.47 | change in expression of gene rpoB [1]: −0.26 ± 0.43 | change in expression of gene rpoC [1]: −0.29 ± 0.43 | change in expression of gene rpoD [1]: 1.41 ± 0.72 | change in expression of gene rpoE [1]: −0.26 ± 0.66 | change in expression of gene rpoH [1]: 1.72 ± 0.55 | change in expression of gene rpoN [1]: −1.18 ± 0.54 | change in expression of gene rpoS [1]: 1.63 ± 0.51 | change in expression of gene rpoZ [1]: −1.83 ± 0.60 | change in expression of gene spy [1]: 1.90 ± 0.95 | change in expression of gene tatA [1]: −1.15 ± 0.57 | change in expression of gene tatB [1]: −1.35 ± 0.65 | change in expression of gene tatC [1]: −2.55 ± 1.23 | change in expression of gene tatD [1]: −1.90 ± 1.23 | change in expression of gene tatE [1]: 0.41 ± 0.70 | number of genes with significant changes in expression (vs control, Bon Ferroni corrected p-value<0.05): 399 genes

From patent publication US20230167467A1, “METHODS AND COMPOSITIONS FOR THE PRODUCTION OF ISOBUTENE” (University of Alaska Anchorage, priority 2020, published 2023)
